Where two headings read alike, the source gives them in different places.
Key:
[1] = system: platelet aggregation caused by arachidonic acid (platelet-rich plasma); assay: Platelet aggregation-inhibitory action, arachidonic acid (100 μM) induced, Born's turbidometric method; type: cell-based, rabbit; conditions: Oryctolagus cuniculus, 0.05 h, read-out: 50% inhibitory concentration, Arachidonic acid
Description: (§1) Blood was drawn from the carotid artery of a rabbit using a syringe containing 3.8% solution of sodium citrate in an amount of […] per volume of the solution. The blood was centrifuged to obtain platelet-rich plasma (PRP: 5×10^5 platelets/μl).
(§2) In a cuvette was placed 250 μl of the PRP, which is warmed in a constant-temperature bath at 37° C. for 2 min. To the warmed cuvette was added 20 μl of a solution of an alkanolamine derivative to be tested (a […] ethanol solution which had been diluted with Trisbuffered isotonic saline solution). The mixture was then incubated for 3 min., followed by addition of a aggregation inducer, an arachidonic acid solution or a collagen solution. Measurement of the platelet aggregation was made by Born's turbidometric method (e.g., described in J. Physiol., Vol. 168, P. 178, 1968). The 50% inhibitory concentration for the platelet aggregation caused by arachidonic acid (100 μM) or collagen (20 μg/ml) is given in Table 1 with reference to Aspirin for comparison.
(§3) The 50% inhibitory concentration as shown in the table means the concentration of an alkanolamine derivative required for inhibiting aggregation ability of the platelets to 50% when the aggregation ability of the platelets in the absence of the alkanolamine derivative of the invention is taken as 100%.

[2] = system: platelet aggregation caused by collagen (platelet-rich plasma); assay: Platelet aggregation-inhibitory action, collagen (20 μg/ml) induced, Born's turbidometric method; type: cell-based, rabbit; conditions: Oryctolagus cuniculus, 0.05 h, read-out: 50% inhibitory concentration, Collagen
Description: as §1, §2, §3

[3] = rabbit PRP, 37° C., 3 min. incubation, arachidonic acid 100 μM
[4] = rabbit PRP, 37° C., 3 min. incubation, collagen 20 μg/ml

Compound	IC50 [1] [µM]	IC50 [2] [µM]	IC50 [1, 3] [µM]	IC50 [2, 4] [µM]
CC(=O)Oc1ccccc1C(=O)O [Aspirin, reference compound]	14	13.6		
CC/C=C\C/C=C\C/C=C\CCCCCCCC(=O)NCCCOCc1cccnc1 [Example 17, (N-9,12,15-octadecatrienoyl)-3-aminopropyl β-picolylether]			7.07	123
CC/C=C\C/C=C\C/C=C\C/C=C\C/C=C\CCCC(=O)N(CCO)CCCC [Example 7, N-butyl-N-5,8,11,14,17-eicosapentaenoyl-2-aminoethanol]			3.55	187
CC/C=C\C/C=C\C/C=C\C/C=C\C/C=C\CCCC(=O)N(CC)CCOC(=O)c1cccnc1 [Example 10, N-ethyl-N-5,8,11,14,17-eicosapentaenoyl-2-aminoethylnicotinate]			4.99	91.7
CC/C=C\C/C=C\C/C=C\C/C=C\C/C=C\CCCC(=O)NCCOCc1cccnc1 [Example 16, (N-5,8,11,14,17-eicosapentaenoyl)-2-aminoethyl β-picolyl ether]			5.68	50.1
CC/C=C\C/C=C\C/C=C\C/C=C\C/C=C\CCCC(=O)OCCN(CC)C(=O)c1cccnc1 [Example 13, (N-ethyl-N-nicotinoyl-2-aminoethyl)-5,8,11,14,17-eicosapentaenoate]			255	401
CC/C=C\C/C=C\C/C=C\CCCCCCCC(=O)N(C)CCOC(=O)c1cccnc1 [Example 9, N-methyl-N-9,12,15-octadecatrienoyl-2-aminoethylnicotinate]			8.24	273
CC/C=C\C/C=C\C/C=C\CCCCCCCC(=O)OCCNC(=O)c1cccnc1 [Example 3, N-nicotinoyl-2-aminoethyl 9,12,15-octadecatrienoate]			49	140
CC/C=C\C/C=C\C/C=C\C/C=C\C/C=C\CCCC(=O)N(C)CCOCc1cccnc1 [Example 14, [N-methyl-N-(5,8,11,14,17-eicosapentaenoyl)-2-aminoethyl]-β-picolylether]			5.68	50.1
CC/C=C\C/C=C\C/C=C\C/C=C\C/C=C\CCCC(=O)NCCO [Example 1, N-5,8,11,14,17-eicosapentaenoyl-2-aminoethanol]			22	98
CC/C=C\C/C=C\C/C=C\C/C=C\C/C=C\CCCC(=O)N(CC)CCO [Example 6, N-ethyl-N-5,8,11,14,17-eicosapentaenoyl-2-aminoethanol]			3.57	273
CC/C=C\C/C=C\C/C=C\C/C=C\C/C=C\CCCC(=O)OCCNC(=O)c1cccnc1 [Example 2, N-nicotinoyl-2-aminoethyl 5,8,11,14,17-eicosapentaenoate]			11	93
CC/C=C\C/C=C\C/C=C\C/C=C\C/C=C\CCCC(=O)N(CCCC)CCOCc1cccnc1 [Example 15]			7.07	123
CCCCC/C=C\C/C=C\C/C=C\CCCCC(=O)OCCNC(=O)c1cccnc1 [Example 4, N-nicotinoyl-2-aminoethyl 6,9,12-octadecatrienoate]			36	190
CC/C=C\C/C=C\C/C=C\C/C=C\C/C=C\CCCC(=O)NCCOC(=O)c1cccnc1 [Example 5, N-5,8,11,14,17-eicosapentaenoyl-2-aminoethyl nicotinate]			8.8	90
CC/C=C\C/C=C\C/C=C\C/C=C\C/C=C\CCCC(=O)NCCCOC(=O)c1cccnc1 [Example 12, N-5,8,11,14,17-eicosapentaenoyl-3-aminopropylnicotinate]			3.44	55.3
CC/C=C\C/C=C\C/C=C\C/C=C\C/C=C\CCCC(=O)N(C)CCOC(=O)c1cccnc1 [Example 8, N-methyl-N-5,8,11, 14,17-eicosapentaenoyl-2-aminoethylnicotinate]			6.62	111
CC/C=C\C/C=C\C/C=C\C/C=C\C/C=C\CCCC(=O)N(CCCC)CCOC(=O)c1cccnc1 [Example 11, N-butyl-N-5,8,11,14,17-eicosapentaenoyl-2-aminoethylnicotinate]			6.03	197
